US12268661B2, “Methods of treating ascites” (Martin Pharmaceuticals, Inc., priority 2019, dated 2025)
Like-named read-outs stand apart in the source and are kept apart here. Each block holds one compound with its values, some of them ahead of it.

Legend:
[1] = test system: cirrhotic patients with refractory ascites; test: Open-label, single-arm clinical study of docarpamine in cirrhotic subjects with refractory ascites; type: in vivo, human
Description: An open-label, single-arm study in which each subject serves as his/her own control is conducted. The study assesses the effect of DCP treatment on ascites formation in cirrhotic subjects with RA, by examining the frequency of LVP and the volume of ascitic fluid drained. All subjects participate in a 90-day open-label treatment period. […] Ascites history (relevant medications, LVP dates, and volume of drained fluid) for the 90 days prior to treatment and the 90 days after treatment are collected and used for comparison with on-treatment frequency and volume. The study population consists of cirrhotic patients between 18 and 70 years of age, inclusive, with refractory ascites, subject to the following inclusion and exclusion criteria. • Patients 18 years to 70 years of age. • Documented cirrhosis of the liver. • Refractory ascites, defined as ascites not manageable with diuretics and diet restriction, managed with periodic large volume therapeutic paracentesis. • Patients must have therapeutic […] 3 days prior to enrollment and a documented minimum of 3 additional therapeutic […] 90 days prior to enrollment, with at least 1 every 30 days. • Outpatient, with expected survival of at least 6 months. • Willing and able to complete an informed consent form. […] Results

[2] = test system: RA patients; conditions: small cohort of RA patients (Funasaki 1999); cited from earlier work
[3] = Dopamine levels after oral administration of docarpamine in non-Asian versus Asian populations; type: in vivo, human; conditions: non-Asian (especially Caucasian) compared to Asian (especially Japanese) populations
[4] = test system: dopamine receptors, beta1 adrenoceptors, alpha-adrenoceptors; conditions: cited from earlier work
[5] = test system: patients with RA; conditions: cited from earlier work
[6] = oral administration, high rates of metabolism in gut/small intestine and liver, cited from earlier work
[7] = dopamine 2 ug/kg/min, patients with RA (Lin 1998)

variability in the resulting dopamine levels [3]: high degree of variability
SMILES: CCOC(=O)Oc1ccc(CCNC(=O)[C@H](CCSC)NC(C)=O)cc1OC(=O)OCC [docarpamine]
dose groups in which effects are observed ([1]; 750 mg 3 times per day (2250 mg) versus 1500 mg 3 times per day (4500 mg), 90 days): only in the high dose (4500 mg per day group)
time without requiring LVP ([1]; 1500 mg 3 times per day (4500 mg per day), 90 days treatment): Some patients do not require LVP for more than one month and others do not require LVP for more than two months
renin and/or aldosterone levels ([1]; 4500 mg per day group, 90 days): reduced, in some cases to normal, in many patients
sodium excretion and other markers of renal function ([1]; 4500 mg per day group, 90 days): Increased sodium excretion and other markers of improved renal function respond positively
frequency of LVP and/or volume of ascites removed over 90 days ([1]; 4500 mg per day group, 90 days, versus own history): reduced by more than half on average
urinary output ([1]; 4500 mg per day group, most patients, from 500-1000 ml before, 'or more'): 1500 to 2000 mL
response (need for LVP) ([1]; some patients, 2250 mg per day in combination with diuretics (furosemide and/or spironolactone)): enhanced response (decreased need for LVP)
efficacy in refractory ascites [2]: effective

SMILES: NCCc1ccc(O)c(O)c1 [dopamine]
effect at low rates of infusion ([4]; 0.5-2 mcg/kg/min, renal, mesenteric, coronary, intracerebral vascular beds): vasodilation
effect at intermediate rates of infusion ([4]; 2-10 mcg/kg/min, beta1 adrenoceptor stimulation): improved myocardial contractility, increased sino-atrial rate and enhanced impulse conduction in the heart
effect at higher rates of infusion ([4]; 10-20 mcg/kg/min, alpha-adrenoceptors): vasoconstrictor effects and a rise in blood pressure
effect at very high rates of infusion ([4]; above 20 mcg/kg/min, alpha-adrenoceptor stimulation predominates): reversing renal dilation and natriuresis
effect when administered intravenously ([4]; intravenous): natriuretic and positive inotropic effects
GFR ([5]; dopamine 1.5 ug/kg/min (Bacq 1991)): did not enhance
urine volume and GFR ([5]; dopamine 2 ug/kg/min (Espiritu 1972)): non-significant increases
changes of blood urea nitrogen, creatinine, creatinine clearance, blood pressure, pulse rate, serum sodium, serum aldosterone and GFR [5, 7]: no difference
effective renal plasma flow [5, 7]: Positive effects
GFR ([5]; dopamine 200 ug/min): did not significantly change
urine volume, urine sodium or GFR ([5]; dopamine 1.3-3 ug/kg/min (Barnardo 1970)): did not change
oral bioavailability [6]: not orally bioavailable
oral bioavailability ([6]; listed as Dopamine): not bioavailable when administered orally

SMILES: Oc1ccc(C2CNCCc3c2cc(O)c(O)c3Cl)cc1 (centres unmarked) [fenoldopam]
urine volume or urine sodium ([5]; Hadengue 1991): failed to increase
